Measured values reported in patent US6034246A, “2-arylbenzazole compounds” (Cancer Research Campaign Technology Limited, priority 1995, dated 2000).

Key:
L23/P = test: in vitro inhibition of growth of human lung cancer cell line L23/P (Table 1); assay type: cell-based
Source text: (§1) Tables 1 to 4 at the end of the present description show in vitro test results obtained in various sets of experiments for the cytotoxic activity of several of the benzazole compounds concerned, including also for reference results for the compound CJM 126 and comparative results for compound DF129, when tested against a range of tumor cell lines which includes ovarian, lung and certain colon and renal cancer cells from the National Cancer Institute (USA) collection. As usual the results are expressed in terms of IS50 values (concentration or dosage required to reduce cell growth or proliferation by 50%) calculated from dose-effect curves plotted for cultures of the cells in question.
(§2) In carrying out the in vitro studies, the cytotoxicity assays may be carried out by a method corresponding substantially to the following example:
(§3) Cells were maintained in a continuous logarithmic culture in Dublecco's medium supplemented with 10% fetal calf serum and penicillin (100 IU/ml) and streptomycin ([…]). The cells were mildly trypsinized for passage and for use in assays. On day zero, 100 μl of trypsinized tumor cells (1×10^4 /ml) were plated in the wells of 96-well flat-bottom microtiter plates. The plates were incubated for 2 days at 37° C. and 5% CO2 in air to allow the cells to adhere and resume exponential growth prior to the addition of drugs.
(§4) On day two 50 μl of the highest drug concentration was added to the wells of column 12 and from there serially diluted 3-fold to column 1 by serial transfer of 50 μl using an 8-channel micropipette. The final volume of column 1 was adjusted to 100 μl. No additions were made to the wells of rows A and B, which served as controls. The plates were further incubated for 5 days at 37° C. and 5% CO2 in air. Each compound was tested in duplicate.
(§5) On day 7 the test was terminated by the addition of 100 μl saline containing 0.002% w/v propidium iodide (Sigma), 0.3% drawing ink (Staedtler "Marsmatic 745"--Trade Mark) and 0.5% Triton X-100. The plates were kept at 4° C. overnight before reading on an inverted microscope equipped with an automated scanning stage. Fluorescence intensity was measured in arbitrary units by a photomultiplier. An HP-87 computer controlled the movement of the stage and also collected and processed the data from the multiplier.
(§6) For each compound tested a dose-response curve was obtained and the IC50 value (the drug concentration at 50% inhibition of cell growth) was calculated.

CH1-cisR = test: in vitro activity against human ovarian cell line CH1-cisR (Table 2); assay type: cell-based; details: Homo sapiens, CH1cisR
Source text: (§7) As usual the results are expressed in terms of IS50 values (concentration or dosage required to reduce cell growth or proliferation by 50%) calculated from dose-effect curves plotted for cultures of the cells in question.
as §2, §3, §4
(§8) The plates were kept at 4° C. overnight before reading on an inverted microscope equipped with an automated scanning stage. Fluorescence intensity was measured in arbitrary units by a photomultiplier. An HP-87 computer controlled the movement of the stage and also collected and processed the data from the multiplier.

MCF-7wt = test: in vitro inhibitory activity against human breast tumour cell line MCF-7wt (Table 4); assay type: cell-based; details: initial seeding density 2.5 × 10^2 cells/well
Source text: as §1, §2, §3, §4, §5, §6
*Initial seeding density 2.5 × 10^2 cells/well

[1] = estimation of toxicity in tumor-bearing nude mice (body weight, blood cells, survival); assay type: in vivo, mouse
Protocol: (§9) In one typical set of experiments, four human breast carcinomas xenotransplanted into female Ncr: nu/nu (Taconic, Germantown, U.S.A.) or male Bom: NMRI-nu/nu mice (Bomholtgaard, Ry, Denmark) were used for the evaluation of antitumor activity. Mice weighing 20-25 g at the start of experiments were held under sterile conditions at 24-26° C., 50% relative humidity and 12 hours light-dark rhythm in laminar flow shelves. The animals received autoclaved food and bedding; the drinking water was filtered and acidified (pH4.0).
(§10) The following breast carcinoma cell lines were used: BO; MCF-7 (NCI, U.S.A.); MT-1 and MT-3. The tumors BO and MCF-7 are ER^+ models: the carcinomas MT-1 and MT-3 are ER^- ones. Tumors were transplanted subcutaneously (s.c.) as pieces (2×2 mm) into the left flank of 5-8 nude mice/experimental group. Drug treatment was initiated when the tumors reached a diameter of 4-5 mm. Compounds were solubized with Tween 80 (maximum 10% of final volume) and suspended in saline. Suspensions were preparted freshly for each drug administration and injected in a volume of 0.2 mL/20 g body weight employing a once-weekly schedule (x3). Tumor size was measured twice weekly with a caliper. Median tumor volume/group was related to the first treatment day and expressed as Relative Tumor Volume (RTV). For the estimation of toxicity, body weight was determined twice weekly and the mean percentage body weight change (BCC) was calculated. In one experiment blood was obtained from the retroorbital venous plexus of mice and blood cells were determined with a Coulter counter (Model T41).

A2780-cisR = test: in vitro activity against human ovarian cell line A2780-cisR (Table 2); assay type: cell-based; details: for IC50: Homo sapiens, A2780cisR, A2780-cisR (platinum-resistant); for activity against A2780-cisR compared to the parental line A2780: words, Table 2
Source text: as §7, §2, §3, §4, §8

Prostatic DU 145 = test: in vitro inhibitory activity against human prostatic cell line DU 145 (Table 3); assay type: cell-based
Source text: as §1
(§11) In carrying out the in vitro studies, the cytotoxicity assays may be carried out by a method corresponding substantially to the following example: […]
as §5, with “An HP-87 computer controlled the movement of the stage and also collected and processed the data from the multiplier.” left out

Colon SW-620 = test: in vitro inhibitory activity against human colon cell line SW-620 (Table 3); assay type: cell-based
Source text: as §1, §11
as §5, with “An HP-87 computer controlled the movement of the stage and also collected and processed the data from the multiplier.” left out

breast carcinoma BO = test: in vivo antitumor test, human breast carcinoma BO xenotransplanted in nude mice; details: BO
Protocol: as §9
as §10, with “T41). […]” for “T41).”

CH1 = test: in vitro activity against human ovarian cell line CH1 (Table 2); assay type: cell-based; details: Homo sapiens
Source text: as §7, §2, §3, §4, §8

LX4 = test: in vitro inhibition of growth of human lung cancer cell line LX4 (Table 1); assay type: cell-based
Source text: as §1, §2, §3, §4, §5, §6

Renal TK-10 = test: in vitro inhibitory activity against human renal cell line TK-10 (Table 3); assay type: cell-based
Source text: as §1, §11
as §5, with “An HP-87 computer controlled the movement of the stage and also collected and processed the data from the multiplier.” left out

SK-OV-3 = test: in vitro activity against human ovarian cell line SK-OV-3 (Table 2); assay type: cell-based
Source text: as §1, §11
as §5, with “An HP-87 computer controlled the movement of the stage and also collected and processed the data from the multiplier.” left out

MOR/P = test: in vitro inhibition of growth of human lung cancer cell line MOR/P (Table 1); assay type: cell-based; details: MOR/P (parental line)
Source text: as §1, §2, §3, §4, §5, §6

NCI-H226 = test: in vitro inhibition of growth of human lung cancer cell line NCI-H226 (Table 1); assay type: cell-based
Source text: as §1, §11
as §5, with “An HP-87 computer controlled the movement of the stage and also collected and processed the data from the multiplier.” left out

[2] = MCF-7, optimum dose 200 mg/Kg/inj i.p., qd 12, 19, 26
[3] = MCF-7, optimum dose 12.5 mg/Kg/inj i.p., qd 12, 19, 26

| Structure (SMILES) | IC50 (L23/P) | IC50 (CH1-cisR) | IC50 (MCF-7wt) | IC50 (A2780-cisR) | activity against A2780-cisR compared to the parental line A2780 (A2780-cisR) | IC50 (Prostatic DU 145) | IC50 (Colon SW-620) | IC50 (CH1) | IC50 (LX4) | IC50 (Renal TK-10) | IC50 (SK-OV-3) | IC50 (MOR/P) | IC50 (NCI-H226) | other results |
| --- | --- | --- | --- | --- | --- | --- | --- | --- | --- | --- | --- | --- | --- | --- |
| Nc1ccc(-c2nc3ccccc3s2)cc1I [DF129, 2-(4'-amino-3'-iodophenyl)benzothiazole] | 0.1 µM | 83 µM | < 0.001 µM | 41 µM | increased activity | 52 µM | ~100 µM | 30 µM | > 10 µM | < 1 µM | > 100 µM | 0.3 µM | 0.3 µM | BWC (body weight change) ([1]; BO, optimum dose 200 mg/Kg/inj i.p., qd 27, 34, 41 (Table 6)): -14%; BWC (body weight change) [1, 2]: -14%; Platelets (% of controls) [1, 2]: 106 % of controls; WBC, white blood cells (% of controls) [1, 2]: 112 % of controls; RTV, relative tumor volume (T/C %) (breast carcinoma BO; optimum dose 200 mg/Kg/inj i.p., qd 27, 34, 41 (Table 6), not marked significant): 97% |
| Cc1cc(-c2nc3ccccc3s2)ccc1N [DF203, 2-(4'-amino-3'-methylphenyl)benzothiazole] | 10 µM | 42 µM | < 0.001 µM | 18 µM | increased activity | > 100 µM | > 100 µM | 19 µM | > 10 µM | < 1 µM | > 100 µM | 0.1 µM | 0.3 µM | BWC (body weight change) ([1]; BO, optimum dose 25 mg/Kg/inj i.p., qd 27, 34, 41): -9%; BWC (body weight change) [1, 3]: -12%; Platelets (% of controls) [1, 3]: 108 % of controls; WBC, white blood cells (% of controls) [1, 3]: 100 % of controls; overall change in white blood cell or platelet counts ([1]; MCF-7 test, words): no overall change; BWC (body weight change) ([1]; MT-1, optimum dose 6.25 mg/Kg/inj i.p., qd 7, 14, 21): -3%; BWC (body weight change) ([1]; MT-3, optimum dose 12.5 mg/Kg/inj i.p., qd 7, 14, 21): -3%; bone marrow toxicity ([1]; mouse, in vivo): not dose-limiting; survivors ([1]; mouse, in vivo, 25 mg/kg): only one survivor; toxicity ([1]; mouse, in vivo, 25 mg/kg): toxic; evaluation (breast carcinoma BO; optimum dose 25 mg/Kg/inj i.p., qd 27, 34, 41): ++ (T/C = 21-35%); RTV, relative tumor volume (T/C %) (breast carcinoma BO; optimum dose 25 mg/Kg/inj i.p., qd 27, 34, 41, marked * significant versus control): 35% |
